Data published in patent US20240327429A1, “[1,3]Thiazolo[4,5-d]-pyrimidon-7-ones as inhibitors of NOX4” (Boehringer Ingelheim International GmbH, priority 2023, published 2024).
pIC50: −log10 of the molar value.

What was measured:
NOX2 = target: T1, NOX2 (Homo sapiens, UniProt P04839); assay: NOX2 inhibition assay (L-012), human blood-derived granulocytes; assay type: cell-based; conditions: fMLP/PMA stimulated
T1 construct: endogenous in cells; host or cells: freshly isolated human blood-derived granulocytes
T1 sequence (P04839 2-570 limits assumed): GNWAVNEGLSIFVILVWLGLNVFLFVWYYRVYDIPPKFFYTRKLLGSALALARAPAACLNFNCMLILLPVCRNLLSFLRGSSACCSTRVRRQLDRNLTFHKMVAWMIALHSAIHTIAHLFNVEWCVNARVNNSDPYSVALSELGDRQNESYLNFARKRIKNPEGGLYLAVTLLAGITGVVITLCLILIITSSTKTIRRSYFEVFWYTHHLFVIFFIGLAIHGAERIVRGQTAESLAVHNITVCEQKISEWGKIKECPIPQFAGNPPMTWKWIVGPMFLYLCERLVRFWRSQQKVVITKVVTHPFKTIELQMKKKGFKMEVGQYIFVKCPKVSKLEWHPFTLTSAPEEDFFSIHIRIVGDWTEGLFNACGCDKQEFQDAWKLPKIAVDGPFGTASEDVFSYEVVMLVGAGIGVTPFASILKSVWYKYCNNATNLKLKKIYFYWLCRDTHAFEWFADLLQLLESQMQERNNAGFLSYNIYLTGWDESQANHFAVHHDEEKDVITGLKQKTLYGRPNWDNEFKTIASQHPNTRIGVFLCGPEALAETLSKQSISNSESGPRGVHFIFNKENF
T1 sequence (P13498 2-195 partner limits assumed): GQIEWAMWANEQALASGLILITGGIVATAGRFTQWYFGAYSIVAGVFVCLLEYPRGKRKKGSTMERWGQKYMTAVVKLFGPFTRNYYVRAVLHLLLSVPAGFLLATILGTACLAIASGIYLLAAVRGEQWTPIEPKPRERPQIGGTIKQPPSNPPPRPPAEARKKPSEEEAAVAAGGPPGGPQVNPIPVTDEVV
Protocol: Evaluation of the NOX4 inhibitors on NOX2 activity is assessed in human blood-derived granulocytes.
Afterwards, freshly isolated granulocytes are added to the wells containing the compounds in assay buffer and incubated for 1 h at 37° C. Next, a solution of Nformylmethionine-leucyl-phenylalanine (fMLP; 730 nM), phorbol myristate acetate (PMA, 100 nM) (stimuli of ROS production) and L-012 (200 μM, ROS indicator) is added to the wells and the cells are incubated for additional 30 mins at 37° C. Afterwards luminescence is measured in a SpectraMax M5 microplate reader.

human NOX1 (hNOX1) = target: T2, human NOX1 (hNOX1) (Homo sapiens, UniProt Q9Y5S8); assay: NOX1 inhibition assay (L-012), HEK293 cells stably overexpressing human NOX1; assay type: cell-based; conditions: HEK293-hNOX1, PMA stimulated
T2 construct: pLV-CMV-hNOX1-puro (NM_007052.5); host or cells: HEK293 (CLS GmbH), lentiviral transduction
T2 sequence (Q9Y5S8 1-564): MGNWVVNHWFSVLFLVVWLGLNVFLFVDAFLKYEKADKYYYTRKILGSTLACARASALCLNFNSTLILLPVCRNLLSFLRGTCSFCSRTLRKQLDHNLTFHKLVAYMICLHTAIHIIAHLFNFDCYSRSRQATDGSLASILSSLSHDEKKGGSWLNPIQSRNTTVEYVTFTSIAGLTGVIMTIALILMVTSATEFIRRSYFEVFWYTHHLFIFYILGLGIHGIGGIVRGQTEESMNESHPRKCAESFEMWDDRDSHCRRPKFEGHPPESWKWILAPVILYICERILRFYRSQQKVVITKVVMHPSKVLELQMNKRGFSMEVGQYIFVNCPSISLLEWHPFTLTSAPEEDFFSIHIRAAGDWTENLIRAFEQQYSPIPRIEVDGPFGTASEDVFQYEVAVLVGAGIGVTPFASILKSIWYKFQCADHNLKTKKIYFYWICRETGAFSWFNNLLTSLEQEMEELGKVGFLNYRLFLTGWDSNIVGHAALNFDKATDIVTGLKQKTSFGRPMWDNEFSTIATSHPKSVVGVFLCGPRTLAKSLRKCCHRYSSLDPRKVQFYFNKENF
T2 sequence (P13498 2-195 partner limits assumed): T1 sequence (P13498 2-195 partner limits assumed)
Text: Plasmids are Purchased from Vectorbuilder. • for HEK-hNOX1 all necessary subunits are cloned accordingly: • pLV-CMV-hNOX1-puro (NM_007052.5) • pLV-CMV-hNOXO1-blas (NM_172168.3) • pLV-CMV-hp22phox-hygro (NM_000101.4) • pLV-CMV-hNOXA1-neo (NM_006647.2) • for HEK-hNOX3 • pLV-CMV-hNOX3-puro (NM_015718.3)
3rd generation lentiviral particles are produced in HEK293 suspension cells by transient transfection of three helper and expression plasmids. Crucial lentivirus supernatants are harvested, clarified by filtration and concentrated by precipitation. Lentivirus titers are determined in transducing units in (TU/mL) by transduction of HT1080 cells and colony forming assay. Parental HEK293 cells, purchased from CLS GmbH, are transduced with replication-incompetent 3rd generation lentiviral particles (MOI 2) and expanded for at least 2 weeks before cryopreservation of tested lots. During cultivation, medium is changed three times per week and cells are sub-cultured at least once per week. Selection antibiotics are added according to the plasmids (1 μg/ml puromycin, 1.5 μg/ml blasticidin, 200 μg/ml G418 and 100 μg/ml hygromycin).
Evaluation of the NOX4 inhibitors on NOX1 activity is assessed in HEK293 cells stably overexpressing human NOX1 (hNOX1).
Lastly, 8-amino-5-chloro-2,3-dihydro-7-phenyl-pyrido[3,4-d]pyridazine-1,4-dione sodium salt (L-012, CAS 143556-24-5) is added at 400 μM to all wells, and cells are incubated in an incubator for an additional 3 h. Afterwards luminescence is measured with a SpectraMax Paradigm Microplate Reader.

| Compound | pIC50 (NOX2) | pIC50 (human NOX1 (hNOX1)) |
| --- | --- | --- |
| O=c1c2scnc2nc(SCc2ccc(Cl)cc2F)n1-c1cc(F)c(O)c(F)c1 [Example 2, 5-((4-Chloro-2-fluorobenzyl)thio)-6-(3,5-difluoro-4-hydroxyphenyl)thiazolo[4,5-d]-pyrimidin-7(6H)-one] | < 4.00 | – |
| Cc1cc(Cl)ccc1CSc1nc2ncsc2c(=O)n1-c1cc(F)c(O)c(F)c1 [Example 3] | < 4.00 | 5.77 |
| Cc1cc(F)cc(C)c1CSc1nc2ncsc2c(=O)n1-c1cc(F)c(O)c(F)c1 [Example 4] | < 4.00 | – |
| O=c1c2scnc2nc(SCc2ccc(Cl)cc2)n1-c1cc(F)c(O)c(F)c1 [Example 5] | < 4.00 | 6.52 |
| O=c1c2scnc2nc(SCc2ccc(C(F)(F)F)cc2F)n1-c1cc(F)c(O)c(F)c1 [Example 6] | < 4.00 | < 4.00 |
| O=c1c2scnc2nc(SCc2ccc(C(F)(F)F)cc2)n1-c1cc(F)c(O)c(F)c1 [Example 7] | < 4.00 | < 4.00 |
| O=c1c2scnc2nc(SCc2c(F)cc(F)cc2F)n1-c1cc(F)c(O)c(F)c1 [Example 8] | < 4.52 | 5.96 |
| Cc1cc(F)ccc1CSc1nc2ncsc2c(=O)n1-c1cc(F)c(O)c(F)c1 [Example 9] | < 4.00 | 5.72 |
| O=c1c2scnc2nc(SCc2c(F)cc(F)cc2F)n1-c1cc(F)c(O)cc1F [Example 10, 6-(2,5-Difluoro-4-hydroxyphenyl)-5-((2,4,6-trifluorobenzyl)thio)thiazolo[4,5-d]pyrimidin-7(6H)-one] | < 4.52 | 6.30 |
| O=c1c2scnc2nc(SCc2c(F)cc(F)cc2F)n1-c1ccc(O)c(F)c1 [Example 11] | < 4.52 | 6.05 |
| O=c1c2scnc2nc(SCc2c(F)cc(F)cc2F)n1-c1ccc(O)c(F)c1F [Example 12] | < 4.52 | 5.54 |
| O=c1c2scnc2nc(SCc2c(F)cc(F)cc2F)n1-c1c(F)cc(O)cc1F [Example 13] | 4.07 | 5.49 |
| O=c1c2scnc2nc(SCc2c(F)cc(F)cc2F)n1-c1ccc(O)cc1F [Example 14] | 4.87 | 5.64 |
| O=c1c2scnc2nc(SCc2c(F)cc(F)cc2F)n1-c1ccc(O)cc1 [Example 15] | 4.99 | 5.39 |
| O=c1c2scnc2nc(SCc2c(F)cc(F)cc2F)n1-c1ccc(O)c(Cl)c1 [Example 16] | < 4.00 | 4.82 |
| O=c1c2scnc2nc(SCc2c(F)cc(F)cc2F)n1-c1ccc(O)cc1Cl [Example 17] | – | 4.84 |
| N#Cc1cc(-n2c(SCc3c(F)cc(F)cc3F)nc3ncsc3c2=O)ccc1O [Example 18] | < 4.52 | 7.22 |
| O=c1c2scnc2nc(SCc2c(F)cc(F)cc2F)n1-c1ccc(O)cn1 [Example 19] | 4.32 | 4.77 |
| O=c1c2scnc2nc(SCc2c(F)cc(F)cc2F)n1-c1cc(F)c(O)cn1 [Example 20] | < 4.00 | 5.15 |
| O=c1c2scnc2nc(SCc2c(F)cc(F)cc2F)n1-c1ncc(O)cn1 [Example 21, 6-(5-Hydroxypyrimidin-2-yl)-5-((2,4,6-trifluorobenzyl)thio)thiazolo[4,5-d]pyrimidin-7(6H)-one] | < 4.00 | < 4.00 |

| Compound | pIC50 (NOX2) | pIC50 (human NOX1 (hNOX1)) |
| --- | --- | --- |
| O=c1c2scnc2nc(SCc2ccc(Cl)cc2F)n1-c1ccc(O)nc1 [Example 22, 5-((4-Chloro-2-fluorobenzyl)thio)-6-(6-hydroxypyridin-3-yl)thiazolo[4,5-d]pyrimidin-7(6H)-one] | < 4.52 | < 4.00 |
| Cc1cc(Cl)ccc1CSc1nc2ncsc2c(=O)n1-c1ccc(O)nc1 [Example 23] | < 4.00 | 4.32 |
| Cc1cc(F)cc(C)c1CSc1nc2ncsc2c(=O)n1-c1ccc(O)nc1 [Example 24] | 4.99 | 4.69 |
| O=c1c2scnc2nc(SCc2ccc(Cl)cc2)n1-c1ccc(O)nc1 [Example 25] | < 4.00 | < 4.00 |
| O=c1c2scnc2nc(SCc2ccc(C(F)(F)F)cc2F)n1-c1ccc(O)nc1 [Example 26] | < 4.00 | 4.48 |
| O=c1c2scnc2nc(SCc2ccc(C(F)(F)F)cc2)n1-c1ccc(O)nc1 [Example 27] | < 4.00 | 4.12 |
| O=c1c2scnc2nc(SCc2c(F)cc(F)cc2F)n1-c1ccc(O)nc1 [Example 28] | < 4.52 | 4.57 |
| Cc1cc(F)ccc1CSc1nc2ncsc2c(=O)n1-c1ccc(O)nc1 [Example 29] | 4.43 | 4.48 |
| O=c1c2scnc2nc(SCc2ccc(F)cc2)n1-c1ccc(O)nc1 [Example 30] | < 4.52 | 4.42 |
| O=c1c2scnc2nc(SCc2c(F)cc(F)cc2F)n1-c1cnc(O)c(F)c1 [Example 31, 6-(5-Fluoro-6-hydroxypyridin-3-yl)-5-((2,4,6-trifluorobenzyl)thio)thiazolo[4,5-d]-pyrimidin-7(6H)-one] | 4.98 | 4.64 |
| O=c1c2scnc2nc(SCc2ccc(C(F)(F)F)cc2)n1-c1cnc(O)c(F)c1 [Example 32, 6-(5-Fluoro-6-hydroxypyridin-3-yl)-5-((4-(trifluoromethyl)benzyl)thio)thiazolo[4,5-d]pyrimidin-7(6H)-one] | < 4.00 | < 4.00 |
| O=c1c2scnc2nc(SCc2ccc(Cl)cc2)n1-c1cnc(O)c(F)c1 [Example 33] | < 4.00 | 4.45 |
| O=c1c2scnc2nc(SCc2ccc(Br)cc2F)n1-c1cnc(O)c(F)c1 [Example 34] | < 4.00 | 4.83 |
| O=c1c2scnc2nc(SCc2ccc(Cl)cc2F)n1-c1cnc(O)c(F)c1 [Example 35] | < 4.00 | < 4.00 |
| Cc1cc(F)ccc1CSc1nc2ncsc2c(=O)n1-c1cnc(O)c(F)c1 [Example 36] | < 4.00 | < 4.00 |
| Cc1cc(Cl)ccc1CSc1nc2ncsc2c(=O)n1-c1cnc(O)c(F)c1 [Example 37] | < 4.00 | 4.73 |
| O=c1c2scnc2nc(SCc2ccc(F)cc2F)n1-c1cnc(O)c(F)c1 [Example 38] | < 4.00 | < 4.00 |
| O=c1c2scnc2nc(SCc2ccc(Cl)cc2Cl)n1-c1cnc(O)c(F)c1 [Example 39] | < 4.00 | 4.61 |
| Cc1cc(Cl)ccc1CSc1nc2ncsc2c(=O)n1-c1cnc(O)nc1 [Example 54] | < 4.00 | – |
| O=c1c2scnc2nc(SCc2ccc(C(F)(F)F)cc2F)n1-c1cnc(O)nc1 [Example 57] | < 4.00 | – |
